Data: patent US11083717B2, “Compositions and methods for drug sensitization of parasites” (The Texas A&M University System, priority 2015, dated 2021)
Converted amounts (≈) assume the structure as drawn. Where two headings read alike, the source gives them in different places.

What was measured:
S. cerevisiae = assay: in vitro; conditions: Saccharomyces cerevisiae
Cryptosporidium parvum = conditions: mouse, in vivo
Method: The anticryptosporidial activity of the in vitro inhibitors was assessed in the IL-12 knockout mouse model that resembles the acute human disease (Ehigiator H N, Romagnoli P, Borgelt K, Fernandez M, McNair N, Secor W E, Mead J R. 2005. Mucosal cytokine and antigen-specific responses to Cryptosporidium parvum in IL-12p40 KO mice. Parasite Immunol. 27: 17-28; Campbell L D, Stewart J N, Mead J R. 2002. Susceptibility to Cryptosporidium parvum infections in cytokine- and chemokine-receptor knockout mice. J. Parasitol. 88:1014-1016). The protocol was approved by the Institutional Animal Care and Use Committees of Emory University, the AtlantaVAMedical Center, and Brandeis University. Mice (6 to 10 per group) were inoculated with 1,000 purified CP oocysts (Iowa isolate, from cattle). Treatment by gavage began 4 h postinfection with either vehicle (5% dimethyl sulfoxide (DMSO) in canola oil), 50-100 mg/kg compound, or 2,000 mg/kg paromomycin. Compounds were given for 7 days, and mice were sacrificed on day 8 (peak infection). Parasite load was quantified by fluorescence-activated cell sorting (FACS) assays for the presence of the oocysts in the feces at days 0, 4, and 7. Fecal pellets from individual mice were routinely collected daily and homogenized in adjusted volumes of 2.5% potassium dichromate. Samples were processed individually. Aliquots (200 ul) of vortexed samples were processed over microscale sucrose gradients as previously described (Arrowood M J, Hurd M R, Mead J R. 1995. A new method for evaluating experimental cryptosporidial parasite loads using immunofluorescent flowcytometry. J. Parasitol. 81:404-409). The oocyst-containing fraction was collected, washed, and treated with monoclonal antibody (OW5O-FITC) for 20 min. Samples were adjusted to 600 ul, and a portion (100 ul) was assayed with a 102-s sampling interval using logical gating of forward/side scatter and OW5O-FITC fluorescence signal on a Becton, Dickinson FACScan flow cytometer. Flow cytometry data were evaluated by analysis of variance (KaleidaGraph (Synergy Software, Reading Pa.); Microsoft Excel (Microsoft Corporation, Redmond, Wash.)).
NZ-366 (50 mg/kg) and NZ-369 (100 mg/kg) were administered via gavage in a single daily dose to IL-12 knockout mice that were infected with 1,000 CP oocysts. Additional control groups included those treated with single daily doses of vehicle, and paromomycin (Prm) (2,000 mg/kg), by oral gavage.

[1] = test system: Cryptosporidium parvum (CP); assay: Cell culture model of Cryptosporidium parvum infection in HCT-8 cells, real-time qRT-PCR; format: cell-based; conditions: Cryptosporidium parvum; for inhibition at 0.25 µM: HCT-8, @0.25 uM
How it was run: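 HCT-8 monolayers were infected with C. parvum Iowa oocysts (1.5×10^4/well) for 3 h, then compounds were added after medium exchange and cells were incubated 41 h more (44 h total, 37 °C). Parasite Cp18S rRNA was measured by one-step SYBR qRT-PCR of lysates, normalized to host Hs18S, and % inhibition at the stated µM was derived from a standard curve.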

in vitro = conditions: human
human fibroblast = assay: in vitro
[2] = 44 h, CP in HCT-8 cells, 44 h infection, 50% reduction of parasite growth vs control, NA: not active, read-out: MIC50
[3] = HCT-8, @10 uM, read-out: % inh @

CC(C(=O)NCC(O)CO)c1ccc(Oc2nc3ccc(Cl)cc3s2)cc1 (centres unmarked) [NZ-372, 2-{4-[(6-chloro-1,3-benzothiazol-2-yl)oxy]phenyl}-N-(2,3-dihydroxypropyl)propanamide]
concentrations at which not toxic, S. cerevisiae cytotoxicity testing (S. cerevisiae): ≥ 100 µM | effectiveness in the same type of test (IL-12 knockout mouse model) (Cryptosporidium parvum): effective | MIC50 [1, 2]: 85 nM (≈ 0.0346 µg/mL)

CC(C(=O)NCCS(C)(=O)=O)c1ccc(Oc2nc3ccc(Cl)cc3s2)cc1 (centres unmarked) [NZ-578, 2-{4-[(6-chloro-1,3-benzothiazol-2-yl)oxy]phenyl}-N-(2-methanesulfonylethyl)propanamide]
IC50 (in vitro): > 100 µM | MIC50 [1, 2]: 18 nM (≈ 0.0079 µg/mL) | inhibition at 31 µM ([1]; HCT-8, @31 uM, read-out: % (inhibition of CP) printed in the MIC50 (nM) (CP) column): 83% | MIC50 ([1]; read-out: MIC50 (nM) (CP)): < 30 nM

O=C(Cc1ccc(Oc2nc3cc(F)c(F)cc3s2)cc1)N1CCCCC1 [NZ-481, 2-{4-[(5,6-difluoro-1,3-benzothiazol-2-yl)oxy]phenyl}-1-(piperidin-1-yl)ethan-1-one]
concentrations at which not toxic, S. cerevisiae cytotoxicity testing (S. cerevisiae): ≥ 100 µM | concentrations at which not toxic, human fibroblast cytotoxicity testing (human fibroblast; human): ≥ 100 µM | MIC50 [1, 2]: 1000 to 4000 nM (≈ 0.388 to 1.55 µg/mL)

CN1CCN(C(=O)Cc2ccc(Oc3nc4ccc(F)cc4s3)cc2F)CC1 [NZ-467, 2-{2-fluoro-4-[(6-fluoro-1,3-benzothiazol-2-yl)oxy]phenyl}-1-(4-methylpiperazin-1-yl)ethan-1-one]
concentrations at which not toxic, S. cerevisiae cytotoxicity testing (S. cerevisiae): ≥ 100 µM | concentrations at which not toxic, human fibroblast cytotoxicity testing (human fibroblast; human): ≥ 100 µM | MIC50 [1, 2]: 250 to 1000 nM (≈ 0.101 to 0.403 µg/mL)

CNC(=O)Cc1ccc(Oc2nc3cc(F)c(F)cc3s2)cc1F [NZ-411, 2-{4-[(5,6-difluoro-1,3-benzothiazol-2-yl)oxy]-2-fluorophenyl}-N-methylacetamide]
concentrations at which not toxic, S. cerevisiae cytotoxicity testing (S. cerevisiae): ≥ 100 µM | concentrations at which not toxic, human fibroblast cytotoxicity testing (human fibroblast): ≥ 100 µM | inhibition at 10 µM ([1]; HCT-8, read-out: % inh @ (μM)): 75.7%

CC(C(=O)N1CCNCC1)c1ccc(Oc2nc3ccc(F)cc3s2)cc1 (centres unmarked) [NZ-477, 2-{4-[(6-fluoro-1,3-benzothiazol-2-yl)oxy]phenyl}-1-(piperazin-1-yl)propan-1-one]
concentrations at which not toxic, S. cerevisiae cytotoxicity testing (S. cerevisiae): ≥ 100 µM | concentrations at which not toxic, human fibroblast cytotoxicity testing (human fibroblast; human): ≥ 100 µM | MIC50 [1, 2]: 50 to 170 nM (≈ 0.0193 to 0.0655 µg/mL)

CNC(=O)Cc1ccc(Oc2nc3cc(F)c(F)cc3s2)cc1 [NZ-400, 2-{4-[(5,6-difluoro-1,3-benzothiazol-2-yl)oxy]phenyl}-N-methylacetamide]
concentrations at which not toxic, S. cerevisiae cytotoxicity testing (S. cerevisiae): ≥ 100 µM | concentrations at which not toxic, human fibroblast cytotoxicity testing (human fibroblast): ≥ 100 µM | MIC50 ([1]; 44 h): ~10000 nM (≈ 3.34 µg/mL) | inhibition at 10 µM ([1]; HCT-8, read-out: % inh @ (μM)): 67%

CNC(=O)C(C)c1ccc(Oc2nc3ccc(F)cc3s2)cc1 (centres unmarked) [NZ-386, 2-{4-[(6-fluoro-1,3-benzothiazol-2-yl)oxy]phenyl}-N-methylpropanamide]
concentrations at which not toxic, S. cerevisiae cytotoxicity testing (S. cerevisiae): ≥ 100 µM | concentrations at which not toxic, human fibroblast cytotoxicity testing (human fibroblast; human): ≥ 100 µM | MIC50 [1, 2]: 50 to 300 nM (≈ 0.0165 to 0.0991 µg/mL)

O=C(Cc1ccc(Oc2nc3ccc(F)cc3s2)cc1)N1CCCC1 [NZ-490, 2-{4-[(6-fluoro-1,3-benzothiazol-2-yl)oxy]phenyl}-1-(pyrrolidin-1-yl)ethan-1-one]
concentrations at which not toxic, S. cerevisiae cytotoxicity testing (S. cerevisiae): ≥ 100 µM | concentrations at which not toxic, human fibroblast cytotoxicity testing (human fibroblast; human): ≥ 100 µM | MIC50 [1, 2]: ~250 nM (≈ 0.0891 µg/mL) | inhibition at 0.25 µM [1]: 60%

NCCNC(=O)Cc1ccc(Oc2nc3ccc(F)cc3s2)cc1 [NZ-427, N-(2-aminoethyl)-2-{4-[(6-fluoro-1,3-benzothiazol-2-yl)oxy]phenyl}acetamide]
concentrations at which not toxic, S. cerevisiae cytotoxicity testing (S. cerevisiae): ≥ 100 µM | concentrations at which not toxic, human fibroblast cytotoxicity testing (human fibroblast; human): ≥ 100 µM | MIC50 [1, 2]: < 250 nM | inhibition at 0.25 µM [1]: 71%

CNC(=O)Cc1ccc(Oc2nc3ccc(F)cc3s2)cc1F [NZ-410, 2-{2-fluoro-4-[(6-fluoro-1,3-benzothiazol-2-yl)oxy]phenyl}-N-methylacetamide]
concentrations at which not toxic, S. cerevisiae cytotoxicity testing (S. cerevisiae): ≥ 100 µM | concentrations at which not toxic, human fibroblast cytotoxicity testing (human fibroblast): ≥ 100 µM | MIC50 ([1]; 44 h): 2000 to 10000 nM (≈ 0.669 to 3.34 µg/mL) | inhibition at 10 µM ([1]; HCT-8, read-out: % inh @ (μM)): 94%

NC(=O)Cc1ccc(Oc2nc3ccc(F)cc3s2)cc1F [NZ-484, 2-{2-fluoro-4-[(6-fluoro-1,3-benzothiazol-2-yl)oxy]phenyl}acetamide]
concentrations at which not toxic, S. cerevisiae cytotoxicity testing (S. cerevisiae): ≥ 100 µM | concentrations at which not toxic, human fibroblast cytotoxicity testing (human fibroblast; human): ≥ 100 µM | MIC50 [1, 2]: ~1000 nM (≈ 0.32 µg/mL)

NC(=O)Cc1ccc(Oc2nc3ccc(Cl)cc3s2)cc1 [NZ-505, 2-{4-[(6-chloro-1,3-benzothiazol-2-yl)oxy]phenyl}acetamide]
concentrations at which not toxic, S. cerevisiae cytotoxicity testing (S. cerevisiae): ≥ 100 µM | concentrations at which not toxic, human fibroblast cytotoxicity testing (human fibroblast; human): ≥ 100 µM | MIC50 [1, 2]: ~250 nM (≈ 0.0797 µg/mL)

CC(C)NC(=O)Cc1ccc(Oc2nc3cc(F)c(F)cc3s2)cc1 [NZ-403, 2-{4-[(5,6-difluoro-1,3-benzothiazol-2-yl)oxy]phenyl)-N-(propan-2-yl)acetamide]
concentrations at which not toxic, S. cerevisiae cytotoxicity testing (S. cerevisiae): ≥ 100 µM | concentrations at which not toxic, human fibroblast cytotoxicity testing (human fibroblast; human): ≥ 100 µM | MIC50 [1, 2]: ~10000 nM (≈ 3.62 µg/mL) | inhibition at 10 µM [1, 3]: 63%

CC(C(=O)NC(CO)CO)c1ccc(Oc2nc3ccc(Cl)cc3s2)cc1 (centres unmarked) [NZ-371, 2-{4-[(6-chloro-1,3-benzothiazol-2-yl)oxy]phenyl}-N-(1,3-dihydroxypropan-2-yl)propanamide]
concentrations at which not toxic, S. cerevisiae cytotoxicity testing (S. cerevisiae): ≥ 100 µM | concentrations at which not toxic, human fibroblast cytotoxicity testing (human fibroblast; human): ≥ 100 µM | MIC50 [1, 2]: 150 to 230 nM (≈ 0.061 to 0.0936 µg/mL)

O=C(O)Cc1ccc(Oc2nc3cc(F)c(F)cc3s2)cc1F [NZ-440, 2-{4-[(5,6-difluoro-1,3-benzothiazol-2-yl)oxy]-2-fluorophenyl}acetic acid]
concentrations at which not toxic, S. cerevisiae cytotoxicity testing (S. cerevisiae): ≥ 100 µM | concentrations at which not toxic, human fibroblast cytotoxicity testing (human fibroblast; human): ≥ 100 µM | MIC50 [1, 2]: ~10000 nM (≈ 3.39 µg/mL) | inhibition at 10 µM [1, 3]: 53%

CONC(=O)C(C)c1ccc(Oc2cnc3cc(Cl)ccc3n2)cc1 (centres unmarked) [NZ-310, 2-{4-[(6-chloroquinoxalin-2-yl)oxy]phenyl}-N-methoxypropanamide]
concentrations at which not toxic, S. cerevisiae cytotoxicity testing (S. cerevisiae): ≥ 100 µM | concentrations at which not toxic, human fibroblast cytotoxicity testing (human fibroblast; human): ≥ 100 µM | inhibition at 10 µM [1, 3]: 83%

NC(=O)CNC(=O)Cc1ccc(Oc2nc3ccc(F)cc3s2)cc1 [NZ-438, N-(carbamoylmethyl)-2-{4-[(6-fluoro-1,3-benzothiazol-2-yl)oxy]phenyl}acetamide]
concentrations at which not toxic, S. cerevisiae cytotoxicity testing (S. cerevisiae): ≥ 100 µM | concentrations at which not toxic, human fibroblast cytotoxicity testing (human fibroblast; human): ≥ 100 µM | MIC50 [1, 2]: 250 to 1000 nM (≈ 0.0898 to 0.359 µg/mL) | inhibition at 0.25 µM [1]: 43%

CC(C(=O)N1CCN(C)CC1)c1ccc(Oc2nc3ccc(F)cc3s2)cc1 (centres unmarked) [NZ-466, 2-{4-[(6-fluoro-1,3-benzothiazol-2-yl)oxy]phenyl}-1-(4-methylpiperazin-1-yl)propan-1-one]
concentrations at which not toxic, S. cerevisiae cytotoxicity testing (S. cerevisiae): ≥ 100 µM | concentrations at which not toxic, human fibroblast cytotoxicity testing (human fibroblast; human): ≥ 100 µM | MIC50 [1, 2]: 50 to 100 nM (≈ 0.02 to 0.0399 µg/mL)

O=C(Cc1ccc(Oc2nc3ccc(F)cc3s2)cc1)N1CCNCC1 [NZ-472, 2-{4-[(6-fluoro-1,3-benzothiazol-2-yl)oxy]phenyl}-1-(piperazin-1-yl)ethan-1-one]
concentrations at which not toxic, S. cerevisiae cytotoxicity testing (S. cerevisiae): ≥ 100 µM | concentrations at which not toxic, human fibroblast cytotoxicity testing (human fibroblast; human): ≥ 100 µM | MIC50 [1, 2]: ~1000 nM (≈ 0.371 µg/mL)
